Test results from PMC6449406, “Classification of the human phox homology (PX) domains based on their phosphoinositide binding specificities” (Nature Communications, 2019).
Values belong to the molecule of their own block, whether it stands above or below them.

Experiments:
SNX25 PX domain [1] = target: T1, SNX25 PX domain (Homo sapiens, UniProt Q9H3E2); assay: 1H-15N HSQC NMR titration; assay type: binding; conditions: pH 7.0, 100 mM NaCl, 298 K; secondary site (Lys734)
T1 construct: PX domain only, 15N-labelled, from GST fusion in E. coli
T1 sequence (Q9H3E2 506-628): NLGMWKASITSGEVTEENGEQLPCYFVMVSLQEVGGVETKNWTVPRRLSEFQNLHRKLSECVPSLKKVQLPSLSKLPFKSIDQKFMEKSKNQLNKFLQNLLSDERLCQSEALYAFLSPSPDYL

SNX23 = target: T2, SNX23 (Homo sapiens, UniProt Q96L93); assay: biochemical; design: ITC titration of soluble phosphoinositide headgroup analogue into PX domain, Kd
T2 construct: gene KIF16B; PX domain, GST removed
T2 sequence (Q96L93 1-1317): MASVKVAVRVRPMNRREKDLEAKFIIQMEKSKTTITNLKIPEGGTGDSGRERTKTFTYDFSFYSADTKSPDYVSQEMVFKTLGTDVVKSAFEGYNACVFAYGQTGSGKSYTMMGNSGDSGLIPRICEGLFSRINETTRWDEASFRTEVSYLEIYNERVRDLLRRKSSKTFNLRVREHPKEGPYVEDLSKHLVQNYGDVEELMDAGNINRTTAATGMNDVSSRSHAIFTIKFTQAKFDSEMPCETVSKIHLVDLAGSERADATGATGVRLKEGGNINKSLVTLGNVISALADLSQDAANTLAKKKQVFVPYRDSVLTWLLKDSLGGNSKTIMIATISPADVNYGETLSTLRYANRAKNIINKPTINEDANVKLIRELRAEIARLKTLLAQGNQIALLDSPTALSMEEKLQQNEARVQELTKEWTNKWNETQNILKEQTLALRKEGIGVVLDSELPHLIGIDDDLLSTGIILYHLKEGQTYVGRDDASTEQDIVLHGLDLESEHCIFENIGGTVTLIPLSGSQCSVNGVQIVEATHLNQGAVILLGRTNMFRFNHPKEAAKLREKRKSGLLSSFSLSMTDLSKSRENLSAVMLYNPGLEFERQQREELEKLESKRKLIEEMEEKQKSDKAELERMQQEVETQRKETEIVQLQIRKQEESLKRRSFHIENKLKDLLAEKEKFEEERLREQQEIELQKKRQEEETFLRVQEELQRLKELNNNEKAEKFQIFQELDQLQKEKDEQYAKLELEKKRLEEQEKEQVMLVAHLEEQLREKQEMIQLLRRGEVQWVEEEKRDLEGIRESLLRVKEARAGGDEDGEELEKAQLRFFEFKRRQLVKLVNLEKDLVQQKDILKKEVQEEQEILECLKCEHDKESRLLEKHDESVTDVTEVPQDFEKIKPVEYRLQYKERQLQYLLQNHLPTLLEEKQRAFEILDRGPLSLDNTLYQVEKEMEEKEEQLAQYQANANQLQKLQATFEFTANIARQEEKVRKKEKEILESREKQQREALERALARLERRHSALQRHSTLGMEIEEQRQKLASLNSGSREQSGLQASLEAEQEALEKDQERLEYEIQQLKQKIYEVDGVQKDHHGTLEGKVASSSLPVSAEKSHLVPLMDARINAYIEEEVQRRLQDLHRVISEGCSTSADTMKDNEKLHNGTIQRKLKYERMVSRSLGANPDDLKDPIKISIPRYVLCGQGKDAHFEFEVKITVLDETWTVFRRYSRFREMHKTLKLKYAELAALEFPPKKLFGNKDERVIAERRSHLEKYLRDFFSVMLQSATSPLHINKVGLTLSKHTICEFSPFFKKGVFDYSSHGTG
From the text: We next used isothermal titration calorimetry (ITC) to measure the binding of selected PX domains to soluble phosphoinositide headgroup analogues (Supplementary Figures 2, 3; Supplementary Table 4). These experiments quantitatively supported the results of the liposome pelleting assays for all of the PX domains tested. As an orthogonal method of quantitation, we used biolayer interferometry (BLItz) to measure the interactions of PX proteins with different phosphoinositide-containing membranes (Supplementary Figures 4, 5; Supplementary Table 5). In these experiments, liposomes containing a small amount of biotinylated lipids were coupled to streptavidin sensors, and dipped into solutions containing the PX domains at a single concentration of 20 μM. Again, the results of these liposome-binding experiments using BLItz correlated well with both ITC and liposome pelleting assays. The dissociation constants derived from BLItz analyses were generally in agreement with those from ITC and correlated well with the qualitative interactions observed in pelleting assays. Supplementary Information Supplementary Table 1. Previously reported structures and PtdInsP-binding specificities of mammalian PX proteins. Supplementary Table 2. PX domain constructs used in this study. Supplementary Table 3. […] PX domain binding to phosphoinositides measured by ITC.

SNX25 PX domain [2] = target: T1, SNX25 PX domain; assay: biochemical; design: ITC, soluble phosphoinositide headgroup analogue titrated into purified PX domain, 1:1 fit; conditions: ITC, 20 uM PX domain in cell
From the text: (§1) We next used isothermal titration calorimetry (ITC) to measure the binding of selected PX domains to soluble phosphoinositide headgroup analogues (Supplementary Figures 2, 3; Supplementary Table 4). These experiments quantitatively supported the results of the liposome pelleting assays for all of the PX domains tested. As an orthogonal method of quantitation, we used biolayer interferometry (BLItz) to measure the interactions of PX proteins with different phosphoinositide-containing membranes (Supplementary Figures 4, 5; Supplementary Table 5). In these experiments, liposomes containing a small amount of biotinylated lipids were coupled to streptavidin sensors, and dipped into solutions containing the PX domains at a single concentration of 20 μM. Again, the results of these liposome-binding experiments using BLItz correlated well with both ITC and liposome pelleting assays. The dissociation constants derived from BLItz analyses were generally in agreement with those from ITC and correlated well with the qualitative interactions observed in pelleting assays. As summarized in Supplementary Table 1, many previous reports have described interactions of human PX domain proteins with a variety of different phosphoinositide lipids, as well as other lipids such as phosphatidylserine (PS) and phosphatidic acid (PA) that may promote recruitment to various cellular organelles and membrane domains. Our aim was to perform parallel comparisons of as many human PX domains as possible, using qualitative and quantitative approaches to measure binding to both membrane mimetics and soluble phosphoinositide headgroups. […] Samples were subjected to ultracentrifugation followed by SDS-PAGE and Coomassie staining of the unbound supernatant (S) and bound pellet (P) fractions. b Water-soluble PtdIns3P and PtdIns(3,4)P2 headgroup analogues (500 μM) were titrated into the SGK3 PX domain (20 μM) and measured by ITC. […]

SNX1 = target: T3, SNX1 (Homo sapiens, UniProt Q13596); assay: biochemical; design: ITC, soluble phosphoinositide headgroup analogue titrated into purified PX domain, 1:1 fit; conditions: ITC, 20 uM PX domain in cell
T3 construct: PX domain only, N-terminal GST removed by thrombin, E. coli
From the text: as §1

SNX2 = target: T4, SNX2 (Homo sapiens, UniProt O60749); assay: biochemical; design: ITC, soluble phosphoinositide headgroup analogue titrated into purified PX domain, 1:1 fit; conditions: ITC, 20 uM PX domain in cell
T4 construct: PX domain only, N-terminal GST removed by thrombin, E. coli
T4 sequence (O60749 140-269 limits assumed): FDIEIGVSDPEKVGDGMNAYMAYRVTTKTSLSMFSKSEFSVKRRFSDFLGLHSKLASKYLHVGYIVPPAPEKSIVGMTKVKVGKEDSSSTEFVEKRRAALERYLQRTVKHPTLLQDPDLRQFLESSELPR
From the text: as §1

[3] = target: the molecule itself; assay: SEC; analytical gel filtration, Superdex 200 10/300, 50 mM Tris (pH 8.0), 100 mM NaCl, 2 mM DTT; 100 µl of SNX15 PX domain at 500 µM, 0.5 ml/min, 4 °C; mass from a calibration curve of standards

Molecule: CCCCCCCC(=O)OC[C@H](COP(=O)(O)O[C@H]1[C@H](O)[C@@H](O)[C@H](OP(=O)(O)O)[C@@H](OP(=O)(O)O)[C@H]1O)OC(=O)CCCCCCC [PtdIns(3,4)P2 headgroup analogue]
1H-15N HSQC NMR titration (SNX25 PX domain [1]): significant chemical shift perturbations were observed with di- and tri-phosphorylated phosphoinositides (PIP2 and PIP3)

Molecule: CCCCCCCC(=O)OC[C@H](COP(=O)(O)O[C@H]1[C@H](O)[C@@H](OP(=O)(O)O)[C@H](OP(=O)(O)O)[C@@H](OP(=O)(O)O)[C@H]1O)OC(=O)CCCCCCC [PtdIns(3,4,5)P3 headgroup analogue]
1H-15N HSQC NMR titration (SNX25 PX domain [1]): significant chemical shift perturbations were observed with di- and tri-phosphorylated phosphoinositides (PIP2 and PIP3)

Kd (SNX23): 11.5 µM | Kd (SNX25 PX domain [2]): 12.1 µM | Kd (SNX1): 42 µM | Kd (SNX2): 35.8 µM
Molecule: CCCCCCCC(=O)OC[C@H](COP(=O)(O)O[C@@H]1[C@H](O)[C@H](OP(=O)(O)O)[C@@H](O)[C@H](OP(=O)(O)O)[C@H]1O)OC(=O)CCCCCCC [PtdIns(3,5)P2 headgroup analogue]
1H-15N HSQC NMR titration (SNX25 PX domain [1]): significant chemical shift perturbations were observed with di- and tri-phosphorylated phosphoinositides (PIP2 and PIP3)

Molecule: CCCCCCCC(=O)OC[C@H](COP(=O)(O)O[C@@H]1[C@H](O)[C@H](O)[C@@H](OP(=O)(O)O)[C@H](OP(=O)(O)O)[C@H]1O)OC(=O)CCCCCCC [PtdIns(4,5)P2 headgroup analogue]
1H-15N HSQC NMR titration (SNX25 PX domain [1]): significant chemical shift perturbations were observed with di- and tri-phosphorylated phosphoinositides (PIP2 and PIP3)

B1: SNX15 PX domain (domain or fragment, human)
chain: MSRQAKDDFLRHYTVSDPRTHPKGYTEYKVTAQFISKKDPEDVKEVVVWKRYSDFRKLHGDLAYTHRNLFRRLEEFPAFPRAQVFGRFEASVIEERRKGAEDLLRFTVHIPALNNSPQLKEFFRGG
notes: source: E. coli BL21(DE3)/pLysS, purified (glutathione-Sepharose, thrombin cleavage, size exclusion chromatography); not shown: GST, N-terminal, cleaved
stoichiometry N [3]: 2
